# Reference: PMC8869984, “Multifunctional Silver(I) Complexes with Metronidazole Drug Reveal Antimicrobial Properties and Antitumor Activity against Human Hepatoma and Colorectal Adenocarcinoma Cells” (Cancers, 2022)
# What was measured:
# [1] = tested on: HepG2 cells; experiment: MTT assay (mitochondrial activity), 72 h exposure; type: cell-based, human; conditions: mean ± SD, n = 3
# Method: (§1) The human hepatoma (HepG2) and colorectal adenocarcinoma (Caco-2) cells were purchased from the American Type Culture Collection: ATCC HB-8065 and ATCC HTB-37, respectively. These cells were cultured in Minimum Essential Medium Eagle (MEME) (ATCC). The murine fibroblasts cell line (Balb/c 3T3 clone A31) (gift from the Department of Swine Diseases of the National Veterinary Research Institute in Pulawy) was cultured in Dulbecco’s Modified Eagle Medium (DMEM) (ATCC). The media were supplemented with 10% BCS (Balb/c 3T3), 10% FBS (HepG2), 20% FBS (Caco-2), 1% L-glutamine, 1% antibiotic solution. The cells were maintained in 75 cm^2 cell culture flasks (NUNC) in a humidified incubator at 37 °C in an atmosphere of 5% CO2. The medium was refreshed every two or three days, and the cells were trypsinized by 0.25% trypsin–0.02% EDTA after reaching 70–80% confluence. Single cell suspensions were prepared and adjusted to a density of 2 × 10^5 cell/mL^−1 (HepG2), 1 × 10^5 cell/mL^−1 (Caco-2) and 5 × 10^4 cell/mL^−1 (Balb/c 3T3). The cell suspension was transferred to 96-well plates (100 µL/well) and incubated for 24 h before the exposure to the studied compounds. Stock solutions of ligands and metal complexes were prepared in sterile water and diluted with culture medium to obtain a concentration range from 0.1 to 10 µM. The final concentration of sterile water was 0.1% in the medium. […] As a negative control, cultured cells were grown in the absence of studied compounds. Each concentration was tested in six replicates in three independent experiments. Cytotoxicity was assessed after 72 h of exposure of the cells to compounds. The medium was not changed during the incubation time.
# The metabolic activity of living cells was assessed by the measurement of the activity of dehydrogenases. […] The plate was shaken for 15 min at room temperature and transferred to a microplate reader Synergy HTX multi-mode reader (BioTek® Instruments Inc., Winooski, VT, USA) to measure the absorbance at 570 nm, using a blank as a reference. Cytotoxicity was expressed as a percentage of the negative control. […]
# [2] = tested on: HepG2 cells; experiment: TPC assay (total protein content), 72 h exposure; type: cell-based, human; conditions: mean ± SD, n = 3
# Method: as §1
# This assay is based upon staining the total cellular protein (proliferation). After the incubation, the medium containing the drug was removed, and 100 µL Coomassie brilliant blue R-250 dye was added to each well. The plate was shaken for 10 min. Then, the stain was removed and the cells were rinsed twice with 100 µL of washing solution (glacial acetic acid/ethanol/water, 5:10:85, v:v:v). After that, 100 µL of the desorbing solution (1 M potassium acetate) was added, and plates were shaken again for 10 min. The absorbance was measured at 595 nm in a microplate reader Synergy HTX multi-mode reader (BioTek® Instruments Inc., Winooski, VT, USA) using a blank as a reference. Cytotoxicity was expressed as a percentage of the negative control.
# The study was performed in three independent experiments. The obtained results are presented as mean values ± SD (standard deviation). The assessment of the cytotoxicity data used a one-way analysis of variance (ANOVA) followed by Dunnett’s post hoc test, which was applied to determine significance relative to the negative control.
# [3] = tested on: S. aureus ATCC 25923; experiment: micro-dilution broth method (MIC, MBC); type: cell-based, Staphylococcus aureus
# [4] = tested on: S. epidermidis ATCC 12228; experiment: micro-dilution broth method (MIC, MBC); type: cell-based, Staphylococcus epidermidis
# [5] = tested on: M. luteus ATCC 10240; experiment: micro-dilution broth method (MIC, MBC); type: cell-based, Micrococcus luteus
# [6] = tested on: B. cereus ATCC 10876; experiment: micro-dilution broth method (MIC, MBC); type: cell-based, Bacillus cereus
# [7] = tested on: A. israeli ATCC 10049; experiment: micro-dilution broth method (MIC, MBC); type: cell-based, Actinomyces israelii
# [8] = tested on: P. acnes ATCC 11827; experiment: micro-dilution broth method (MIC, MBC); type: cell-based, Propionibacterium acnes
# [9] = tested on: C. perfringens ATCC 13124; experiment: microbe, parasite or virus in culture; type: cell-based, Clostridium perfringens
# [10] = tested on: C. jejunii ATCC 33291; experiment: micro-dilution broth method (MIC, MBC); type: cell-based, Campylobacter jejunii
# [11] = tested on: K. pneumoniae ATCC 13883; experiment: micro-dilution broth method (MIC, MBC); type: cell-based, Klebsiella pneumoniae
# [12] = tested on: P. aeruginosa ATCC 9027; experiment: micro-dilution broth method (MIC, MBC); type: cell-based, Pseudomonas aeruginosa
# [13] = tested on: B. fragilis ATCC 10240; experiment: micro-dilution broth method (MIC, MBC); type: cell-based, Bacteroides fragilis
# [14] = tested on: V. parvula ATCC 10790; experiment: micro-dilution broth method (MIC, MBC); type: cell-based, Veillonella parvula
# [15] = S. aureus ATCC 25923, value in brackets
# [16] = S. epidermidis ATCC 12228, value in brackets
# [17] = M. luteus ATCC 10240, value in brackets
# [18] = B. cereus ATCC 10876, value in brackets
# [19] = A. israeli ATCC 10049, value in brackets
# [20] = P. acnes ATCC 11827, value in brackets
# [21] = C. perfringens ATCC 13124, value in brackets
# [22] = C. jejunii ATCC 33291, value in brackets
# [23] = K. pneumoniae ATCC 13883, value in brackets
# [24] = P. aeruginosa ATCC 9027, value in brackets
# [25] = B. fragilis ATCC 10240, value in brackets
# [26] = V. parvula ATCC 10790, value in brackets
structure (smiles),measurement,setting,value
"O=S(=O)([O-])[O-].[Ag+].[Ag+] [Ag2SO4, silver sulfate]",IC50,[1],> 10 µM
same,IC50,[2],> 10 µM
same,MBC,[3]; S. aureus ATCC 25923,31.3 mg/L
same,MIC,[3]; S. aureus ATCC 25923,15.6 mg/L
same,MBC,[3]; [15],0.1 µM/mL
same,MIC,[3]; [15],0.05 µM/mL
same,MBC,[4]; S. epidermidis ATCC 12228,31.3 mg/L
same,MIC,[4]; S. epidermidis ATCC 12228,15.6 mg/L
same,MBC,[4]; [16],0.1 µM/mL
same,MIC,[4]; [16],0.05 µM/mL
same,MBC,[5]; M. luteus ATCC 10240,125 mg/L
same,MIC,[5]; M. luteus ATCC 10240,15.6 mg/L
same,MBC,[5]; [17],0.4 µM/mL
same,MIC,[5]; [17],0.05 µM/mL
same,MBC,[6]; B. cereus ATCC 10876,500 mg/L
same,MIC,[6]; B. cereus ATCC 10876,31.3 mg/L
same,MBC,[6]; [18],1.6 µM/mL
same,MIC,[6]; [18],0.1 µM/mL
same,MBC,[7]; A. israeli ATCC 10049,15.6 mg/L
same,MIC,[7]; A. israeli ATCC 10049,0.98 mg/L
same,MBC,[7]; [19],0.05 µM/mL
same,MIC,[7]; [19],0.003 µM/mL
same,MBC,[8]; P. acnes ATCC 11827,500 mg/L
same,MIC,[8]; P. acnes ATCC 11827,125 mg/L
same,MBC,[8]; [20],1.6 µM/mL
same,MIC,[8]; [20],0.4 µM/mL
same,MBC,[9]; C. perfringens ATCC 13124,250 mg/L
same,MIC,[9]; C. perfringens ATCC 13124,250 mg/L
same,MBC,[9]; [21],0.8 µM/mL
same,MIC,[9]; [21],0.8 µM/mL
same,MBC,[10]; C. jejunii ATCC 33291,> 1000 mg/L
same,MIC,[10]; C. jejunii ATCC 33291,1000 mg/L
same,MBC,[10]; [22],> 3.2 µM/mL
same,MIC,[10]; [22],3.2 µM/mL
same,MBC,[11]; K. pneumoniae ATCC 13883,31.3 mg/L
same,MIC,[11]; K. pneumoniae ATCC 13883,31.3 mg/L
same,MBC,[11]; [23],0.1 µM/mL
same,MIC,[11]; [23],0.1 µM/mL
same,MBC,[12]; P. aeruginosa ATCC 9027,125 mg/L
same,MIC,[12]; P. aeruginosa ATCC 9027,62.5 mg/L
same,MBC,[12]; [24],0.4 µM/mL
same,MIC,[12]; [24],0.2 µM/mL
same,MBC,[13]; B. fragilis ATCC 10240,1000 mg/L
same,MIC,[13]; B. fragilis ATCC 10240,250 mg/L
same,MBC,[13]; [25],3.2 µM/mL
same,MIC,[13]; [25],0.8 µM/mL
same,MBC,[14]; V. parvula ATCC 10790,62.5 mg/L
same,MIC,[14]; V. parvula ATCC 10790,62.5 mg/L
same,MBC,[14]; [26],0.2 µM/mL
same,MIC,[14]; [26],0.2 µM/mL
